This note sets out measurements from publication PMC10069031 (European Journal of Medical Research, 2023).

The experiment has as its target T1, murine CSF1R (Mus musculus, UniProt P09581).
T1 construct: Western blot analysis of total lysates (40 µg/lane) from mouse RAW264.7 cells treated as indicated; endogenous in cells; host or cells: RAW264.7 (murine macrophages)
T1 sequence (P09581 20-977): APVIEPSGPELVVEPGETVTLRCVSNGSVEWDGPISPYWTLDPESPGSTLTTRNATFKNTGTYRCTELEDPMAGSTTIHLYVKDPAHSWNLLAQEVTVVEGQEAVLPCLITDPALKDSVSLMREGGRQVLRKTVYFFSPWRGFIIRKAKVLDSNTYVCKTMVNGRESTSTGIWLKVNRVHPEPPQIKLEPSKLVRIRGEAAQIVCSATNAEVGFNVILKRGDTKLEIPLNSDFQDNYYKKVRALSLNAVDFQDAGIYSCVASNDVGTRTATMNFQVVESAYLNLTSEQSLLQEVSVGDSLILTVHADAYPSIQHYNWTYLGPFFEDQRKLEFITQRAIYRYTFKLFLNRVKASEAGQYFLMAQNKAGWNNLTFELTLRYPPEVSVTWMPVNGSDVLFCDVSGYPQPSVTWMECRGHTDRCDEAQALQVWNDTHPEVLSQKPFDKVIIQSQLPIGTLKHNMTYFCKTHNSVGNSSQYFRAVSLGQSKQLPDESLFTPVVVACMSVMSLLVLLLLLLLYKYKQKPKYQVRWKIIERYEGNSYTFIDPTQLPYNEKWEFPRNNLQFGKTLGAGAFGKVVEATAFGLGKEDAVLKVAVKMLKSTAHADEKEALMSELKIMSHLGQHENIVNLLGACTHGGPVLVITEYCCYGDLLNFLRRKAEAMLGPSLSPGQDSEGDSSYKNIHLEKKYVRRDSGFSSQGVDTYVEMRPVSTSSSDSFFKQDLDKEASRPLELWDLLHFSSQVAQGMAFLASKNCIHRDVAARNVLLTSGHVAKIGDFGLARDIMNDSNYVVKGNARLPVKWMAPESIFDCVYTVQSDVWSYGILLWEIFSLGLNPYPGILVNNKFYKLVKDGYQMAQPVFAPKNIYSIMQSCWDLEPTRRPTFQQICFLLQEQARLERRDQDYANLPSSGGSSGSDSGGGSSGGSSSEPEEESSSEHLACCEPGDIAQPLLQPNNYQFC
Kind of experiment: CSF1R inhibition in RAW264.7 cells (western blot of pCSF1R). The experiment is classed as cell-based. On the procedure: RAW264.7 cells (10^6) were seeded into cell culture dishes 6 cm in diameter and incubated in 4 mL RPMI/10% fetal bovine serum (Biochrom) for 24 h at 37 °C in a humidified 5% CO2 atmosphere. Cells were washed once with phosphate-buffered saline (PBS) and starved in 3 mL RPMI/0.1% bovine serum albumin for another 24 h. Cells were then treated for 1 h at 37 °C with drugs at the indicated final concentrations, with 0.5% DMSO as vehicle control, or left untreated, and finally stimulated for 2 min at 37 °C with 100 ng/mL recombinant mouse CSF1 (R&D Systems) by adding 1 mL prewarmed starving medium containing 400 ng/mL CSF1. Dishes were placed on ice and cells were immediately washed with ice-cold PBS and lysed with 50 µL lysis buffer (50 mM HEPES pH 7.5, 150 mM NaCl, 1.5 mM MgCl2, 10% glycerol, 1% Triton X-100, 0.5% desoxycholate, 0.2% sodium dodecyl sulfate, 1 mM ethylene glycol-bis[β-aminoethyl ether]-N,N,N′,N′-tetraacetic acid, 100 mM NaF, 10 mM Na4P2O7, 1 mM Na3VO4, 1% Phosphatase Inhibitor Cocktail 3 [Sigma-Aldrich], 1 mM phenylmethyl sulfonyl fluoride, Complete Protease Inhibitor Cocktail [Roche CustomBiotech; 1 tablet/10 mL], and 50 U/mL Benzonase [Sigma-Aldrich]). Lysed cells were scraped into Eppendorf tubes, incubated on ice for 20 min, and centrifuged at 4 °C for 10 min at 13,000 rpm; supernatants (lysates) were transferred into new tubes and stored at −80 °C.
Protein concentrations were determined using Pierce bicinchoninic acid assay (Thermo Fisher Scientific) and 40 µg/lane of total lysate was separated by SDS-PAGE on 4–12% Criterion XT Bis–Tris Gels (Bio-Rad) and subsequently transferred to polyvinylidene difluoride membranes using the Trans Blot Turbo Blotting System (Bio-Rad). For antigen detection, membranes were blocked with PBS Odyssey blocking reagent (LI-COR Biosciences) for 1 h at room temperature (RT). Primary antibodies were incubated overnight at 4 °C and the fluorescent secondary antibodies were incubated for 1 h at RT. After each antibody incubation, blots were washed with PBS with 0.05% Tween 20 (Carl Roth) for 15–30 min at RT. Fluorescent signals were quantitatively captured using the Odyssey DLx Infrared Imaging System (LI-COR Biosciences) and the half-maximal inhibitory concentration (IC50) values were calculated using GraphPad software (version 7 or newer).
(In western blotting, separated proteins are transferred to a membrane and probed.)

Like-named read-outs stand apart in the source and are kept apart here.

One may read the IC50 as the midpoint of a concentration-inhibition curve. For the compound `CNC(=O)c1cc(Oc2ccc(NC(=O)Nc3ccc(Cl)c(C(F)(F)F)c3)c(F)c2)ccn1` [REG, Regorafenib], the half-inhibitory concentration (IC50) (RAW264.7 cells, drug 1 h, CSF1 100 ng/mL 2 min, mean ± SD (replicates), M-4, M-5 from pCSF1R bands without relating to total CSF1R, read-out: Mean kinase IC50 values: P(Y559)CSF1R [WB]) worked out at 59 ± 16 nM; the 50% inhibitory concentration (IC50) (RAW264.7 cells, drug 1 h, CSF1 100 ng/mL 2 min, mean ± SD (replicates), M-4, M-5 from pCSF1R bands without relating to total CSF1R, read-out: Mean kinase IC50 values: P(Y721)CSF1R [WB]) is 27 ± 14 nM; the 50% inhibitory concentration (IC50) (approximate value of the discussion, read-out: IC50, murine CSF1R in RAW264.7 macrophages) was around 30 nM.
